Measured values taken from paper PMC1570497, “HIV-2 Protease resistance defined in yeast cells” (Retrovirology, 2006).
Substitutions are numbered along the chain they refer to. “And” between values parts separate entries of the source, which are not always exact repeats. Equal entries are not always repeated.

Columns and labels:
HIV-2ROD Protease L90M = biological target: T1, HIV-2ROD Protease L90M (Human immunodeficiency virus type 2 subtype A, UniProt P04584, L603M); assay: cell-based; type: cell-based; details: for IC50mutant/IC50ROD: L90M
T1 sequence (P04584 514-612 L603M): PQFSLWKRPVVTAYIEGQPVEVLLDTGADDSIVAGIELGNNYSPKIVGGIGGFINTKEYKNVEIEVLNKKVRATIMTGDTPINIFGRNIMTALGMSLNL

HIV-2 Protease MRT-20 = HIV-2 Protease MRT-20 (Human immunodeficiency virus type 2, UniProt P04584, cells depend on it, form not given); assay: yeast growth rescue assay, Protease from infected individual; type: cell-based; details: for Phenotype (transformed yeast) (% cell growth) / IC50: MRT-20 Protease; for IC50isolate/IC50ROD: MRT-20; for IC50: yeast
HIV-2 Protease MRT-7 = HIV-2 Protease MRT-7 (Human immunodeficiency virus type 2, UniProt P04584, cells depend on it, form not given); assay: as above; details: for Phenotype (transformed yeast) (% cell growth) / IC50: MRT-7 Protease; for IC50: yeast
HIV-2 Protease MRT-22 = HIV-2 Protease MRT-22 (Human immunodeficiency virus type 2, UniProt P04584, cells depend on it, form not given); assay: as above; details: for Phenotype (transformed yeast) (% cell growth) / IC50: MRT-22 Protease; for IC50isolate/IC50ROD: MRT-22; for IC50: yeast
HIV-2 K45R = test system: HIV-2 K45R; parameters: method as in PMID 16464891; key: resistant (R); sensitive (S); details: cited from earlier work
HIV-2 Protease MRT-25 = HIV-2 Protease MRT-25 (Human immunodeficiency virus type 2, UniProt P04584, cells depend on it, form not given); assay: yeast growth rescue assay, Protease from infected individual; details: for Phenotype (transformed yeast) (% cell growth) / IC50: MRT-25 Protease; for IC50: yeast
HIV-2 Protease MRT-8 = HIV-2 Protease MRT-8 (Human immunodeficiency virus 2, UniProt P04584, L603M, cells depend on it, form not given); assay: as above; details: for Phenotype (transformed yeast) (% cell growth) / IC50: MRT-8 Protease; for IC50: yeast
[1] = biological target: T2, HIV-2ROD Protease (wild type) (Human immunodeficiency virus type 2 subtype A, UniProt P04584); assay: yeast growth rescue assay, HIV-2ROD Protease expressed in BY4741 yeast; type: cell-based; details: for Phenotype (transformed yeast) (% cell growth): galactose, wild type ROD Protease; for Phenotype (transformed yeast) (% cell growth) / IC50: 48 h; for IC50isolate/IC50ROD: ROD (reference); for IC50: ROD Protease
T2 construct: initiator Met (added ATG start codon) (N); expressed in transfected cells; host or cells: Saccharomyces cerevisiae BY4741, pRS316Gal1/10-HIV2PR (galactose-inducible)

HIV-2ROD Protease L99F = biological target: T3, HIV-2ROD Protease L99F (Human immunodeficiency virus type 2 subtype A, UniProt P04584, L612F); assay: cell-based; details: for IC50mutant/IC50ROD: L99F
T3 construct: contains a Phe codon at position 99 of the HIV-2 Protease, followed by a stop codon; initiator Met (start codon of primer Fwd) (N); expressed in transfected cells; host or cells: Saccharomyces cerevisiae BY4741, pRS316GAL1/10
T3 sequence (P04584 514-612 L612F): T1 sequence (P04584 514-612 L603M) with M90L, L99F

HIV-2 Protease MRT-1 = HIV-2 Protease MRT-1 (Human immunodeficiency virus type 2, UniProt P04584, cells depend on it, form not given); assay: yeast growth rescue assay, Protease from infected individual; details: for Phenotype (transformed yeast) (% cell growth) / IC50: MRT-1 Protease; for IC50: yeast
Protease from HIV-2ROD = test system: Protease from HIV-2ROD; parameters: method as in PMID 16464891, PMID 16327332; details: read-out: IC50 already reported in the literature; cited from earlier work
HIV-2ROD Protease = biological target: T4, HIV-2ROD Protease (Human immunodeficiency virus type 2 subtype A, UniProt P04584); type: cell-based
T4 construct: initiator Met (added ATG start codon) (N); expressed in transfected cells; host or cells: Saccharomyces cerevisiae BY4741, pRS316Gal1/10-HIV2PR (galactose-inducible)

HIV-2 V20A, I54M = test system: HIV-2 V20A, I54M; parameters: method as in PMID 16464891; key: resistant (R); sensitive (S); details: cited from earlier work
HIV-2ROD wild type = test system: HIV-2ROD wild type; parameters: method as in previously published data; key: resistant (R); sensitive (S); details: ref previously published data; cited from earlier work
HIV-2 Protease MRT-29 = HIV-2 Protease MRT-29 (Human immunodeficiency virus type 2, UniProt P04584, cells depend on it, form not given); assay: yeast growth rescue assay, Protease from infected individual; details: for Phenotype (transformed yeast) (% cell growth) / IC50: MRT-29 Protease; for IC50isolate/IC50ROD: MRT-29; for IC50: yeast
HIV-2 M76V = test system: HIV-2 M76V; parameters: key: resistant (R); sensitive (S); details: cited from earlier work

HIV-2 Protease MRT-20, sequence (P04584 514-612 limits assumed, change not shown): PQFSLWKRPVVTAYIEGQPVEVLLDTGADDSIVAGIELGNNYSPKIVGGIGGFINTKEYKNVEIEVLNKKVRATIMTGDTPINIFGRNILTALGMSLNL
HIV-2 Protease MRT-1, sequence (P04584 514-612 limits assumed, change not shown): as above
HIV-2 Protease MRT-22, sequence (P04584 514-612 limits assumed, stated change not applied): as the sequence (P04584 514-612 limits assumed, change not shown) above
HIV-2 Protease MRT-29, sequence (P04584 514-612 limits assumed, stated change not applied): as the sequence (P04584 514-612 limits assumed, change not shown) above
HIV-2 Protease MRT-25, sequence (P04584 514-612 limits assumed, stated change not applied): as the sequence (P04584 514-612 limits assumed, change not shown) above
HIV-2 Protease MRT-7, sequence (P04584 514-612 limits assumed, change not shown): as above
T2 sequence (P04584 514-612 limits assumed): as the sequence (P04584 514-612 limits assumed, change not shown) above
T4 sequence (P04584 514-612 limits assumed): as the sequence (P04584 514-612 limits assumed, change not shown) above

Row | SMILES | IC50 (HIV-2ROD Protease L90M) | IC50mutant/IC50ROD (HIV-2ROD Protease L90M) | IC50isolate/IC50ROD (HIV-2 Protease MRT-20) | IC50 (HIV-2 Protease MRT-20) | IC50 (HIV-2 Protease MRT-7) | IC50isolate/IC50ROD (HIV-2 Protease MRT-22) | IC50 (HIV-2 Protease MRT-22) | Phenotype (virus production) (HIV-2 K45R) | IC50 (HIV-2 Protease MRT-25) | IC50 (HIV-2 Protease MRT-8) | IC50isolate/IC50ROD [1] | IC50 [1] | IC50 (HIV-2ROD Protease L99F) | IC50mutant/IC50ROD (HIV-2ROD Protease L99F) | IC50 (HIV-2 Protease MRT-1) | IC50 (Protease from HIV-2ROD) | Phenotype (virus production) (HIV-2 V20A, I54M) | Phenotype (virus production) (HIV-2ROD wild type) | IC50isolate/IC50ROD (HIV-2 Protease MRT-29) | IC50 (HIV-2 Protease MRT-29) | other results
1 | Cc1cccc(C)c1OCC(=O)N[C@@H](Cc1ccccc1)[C@@H](O)C[C@H](Cc1ccccc1)NC(=O)[C@H](C(C)C)N1CCCNC1=O [LPV, Lopinavir] | 12.5 ± 8.1 µM | 0.75 | 1.40 | 23.2 ± 4.4 µM | 10.8 ± 5 µM | 0.91 | 15.1 ± 4.3 µM | R [9] | 19.9 ± 4.6 µM | 12.5 ± 1.5 µM | 1.00 | 16.6 ± 2.5 µM | 11.1 ± 3.1 µM | 0.67 | 48 ± 3.2 µM | 27 nM | R [9] | S | 0.84 | 13.9 ± 5.5 µM | Phenotype (transformed yeast) (% cell growth) (HIV-2 Protease MRT-20; LPV at 150 μM): 71.5+/-1.2%; Phenotype (transformed yeast) (% cell growth) (HIV-2 Protease MRT-7; LPV at 150 μM): 100.0+/-4.7%; Phenotype (transformed yeast) (% cell growth) (HIV-2 Protease MRT-22; LPV at 150 μM): 98.5+/-1.0%; Phenotype (transformed yeast) (% cell growth) (HIV-2 Protease MRT-25; LPV at 150 μM): 100.0+/-2.0%; IC50isolate/IC50ROD (HIV-2 Protease MRT-25; MRT-25): 1.20; Phenotype (transformed yeast) (% cell growth) (HIV-2 Protease MRT-8; LPV at 150 μM): 82.0+/-7.5%; Phenotype (transformed yeast) (% cell growth) ([1]; LPV at 150 μM): 91.5% and 91.5+/-1.2%; Phenotype (transformed yeast) (% cell growth) (HIV-2 Protease MRT-1; LPV at 150 μM): 50.0+/-3.0%; growth in galactose (HIV-2ROD Protease; 60 μM LPV): grew in galactose; Phenotype (transformed yeast) (% cell growth) (HIV-2 Protease MRT-29; LPV at 150 μM): 93.0+/-2.0%
2 | CC(C)(C)NC(=O)[C@@H]1C[C@@H]2CCCC[C@@H]2CN1C[C@@H](O)[C@H](Cc1ccccc1)NC(=O)[C@H](CC(N)=O)NC(=O)c1ccc2ccccc2n1 [SQV, Saquinavir] | 554.1 ± 3.9 µM | 3.7 | 0.79 | 118 ± 6.3 µM | 68.9 ± 6.2 µM | 0.70 | 105 ± 7.1 µM | R [9] | 48.5 ± 4.7 µM | 553.9 ± 4.2 µM | 1.00 | 150 ± 7.2 µM | 147 ± 5.1 µM | 0.98 | 200 ± 5.1 µM | 11 nM | R [9] | S | 1.02 | 153 ± 3 µM | Phenotype (transformed yeast) (% cell growth) (HIV-2 Protease MRT-20; SQV at 1mM): 78.0+/-3.0%; IC50isolate/IC50ROD (HIV-2 Protease MRT-7; MRT-7): 0.46; Phenotype (transformed yeast) (% cell growth) (HIV-2 Protease MRT-7; SQV at 1mM): 98.0+/-6%; Phenotype (transformed yeast) (% cell growth) (HIV-2 Protease MRT-22; SQV at 1mM): 82.0+/-7.1%; Phenotype (transformed yeast) (% cell growth) (HIV-2 Protease MRT-25; SQV at 1mM): 100.0+/-9.4%; IC50isolate/IC50ROD (HIV-2 Protease MRT-8; MRT-8): 4.2 and 4.23; Phenotype (transformed yeast) (% cell growth) (HIV-2 Protease MRT-8; SQV at 1mM, 1000 µM): 55% and 55.0+/-6.3%; Phenotype (transformed yeast) (% cell growth) ([1]; SQV at 1mM): 75% and 75.0+/-7.0%; IC50isolate/IC50ROD (HIV-2 Protease MRT-1; MRT-1): 1.34; Phenotype (transformed yeast) (% cell growth) (HIV-2 Protease MRT-1; SQV at 1mM): 71.0+/-5%; growth on galactose plates (lethal phenotype) (HIV-2ROD Protease; SQV at 200 μM, 2 days at 30°C): the lethal phenotype was no longer observed; Phenotype (virus production) (HIV-2 M76V): R [10]; Phenotype (transformed yeast) (% cell growth) (HIV-2 Protease MRT-29; SQV at 1mM): 72.0+/-3.0%
